“Also recorded” adds a separate entry of the source.
Legend:
Type in all cases: cell-based, human
[1] = test system: SSTR5; test: Differential expression of SSTR5 (qRT-PCR) in iPSC generated pituitary organoids; settings: for expression of SSTR5: 500 nM, vs vehicle; for SSTR5 induction relative to SSTR2: PitNET organoids, summary
Experimental: Sonic Hedgehog (SHH) was withdrawn from the organoid growth media 16 hours prior to treatment. The experimental treatment groups included: vehicle (Veh), mifepristone (500 nM, Selleckchem S2606), GANT61 (5 μM, Stemcell Technologies 73692), ketoconazole (Keto, 10 μM, Selleckchem S1353), pasireotide (Pas, 100 nM, Target Mol TP2207-SB001), octreotide (Oct, 100 nM, Selleckchem P1017), mifepristone plus GANT61, mifepristone plus Keto, mifepristone plus Pas, relacorilant (500 nM, Corcept Therapeutics CORT125134), relacorilant plus Pas, relacorilant plus Oct, or dexamethasone (Dexa, 100 nM, SIGMA S4902). In the combination treatments, cultures were pretreated with the GANT61, Keto, Pas or Oct for 2 hours prior to treatment with mifepristone or Rela. PitNET tissue derived organoids hPITO36, hPITO37, hPITO38, hPITO39, and hPITO40 were treated with the following experimental conditions: Vehicle (1), pasireotide (2), relacorilant (3), relacorilant & pasireotide (4), mifepristone (5), mifepristone & pasireotide (6). The IC50 values used for each hPITO line for each drug were determined based on dose responses (FIG. 12). All organoid cultures were treated for 48 hours prior to analysis.
RNA was extracted from PitNET tissue or iPSC generated organoids using TRI Reagent® (Molecular Research Center Inc TR118) and the High Capacity cDNA Reverse Transcription Kit (Applied Biosystems, Foster City, CA) was used for cDNA synthesis of RNA following the recommended protocol. For each sample, 60 ng RNA was reverse transcribed to yield approximately […] total cDNA that was then used for the qRT-PCR. Pre-designed real-time polymerase chain reaction assays were purchased for the following genes: TPit (Thermo Fisher Scientific 4331182 Hs00193027), SF1 (Thermo Fisher Scientific 4331182 Hs00610436), SSTR2 (Thermo Fisher Scientific 4331182 Hs00265624_s1), SSTR5 (Thermo Fisher Scientific 4331182 Hs00990407_s1), POMC (Thermo Fisher Scientific 4331182 Hs01596743_ml), hPRT (Thermo Fisher Scientific 4331182 Hs02800695_ml), and FKBP5 (Thermo Fisher Scientific 4331182 Hs01561006_m1). Polymerase chain reaction amplifications were performed in a total volume of 20 μL containing 20× TaqMan Expression Assay primers, 2× TaqMan Universal Master Mix (Applied Biosystems, TaqMan® Gene Expression Systems), and cDNA template. Each polymerase chain reaction amplification was performed in triplicate wells in a StepOne Real-Time PCR System (Applied Biosystems) by using the following conditions: 500C 2 minutes, 95° C. 10 minutes, 95° C. 15 seconds (denature) and 60° C. 1 minute (anneal/extend) for 40 cycles. Fold change was calculated as the following: (Ct-Ct high)=n target, 2ntarget/2nHPRT=fold change where Ct=threshold cycle. The results were expressed as average fold change in or differential gene expression relative to control, with HPRT used as an internal control according to Livak and Schmittgen.

[2] = test system: iPSC^ctrl organoids; test: Nuclear morphometric analysis (nuclear irregularity index), iPSCctrl organoids; settings: 500 nM, 48 h
Experimental: Nuclear Morphometric Analysis (NMA) using treated organoids was performed based on a published protocol that measures cell viability based on the changes in nuclear morphology of the cells using nuclear stain Hoechst or DAPI [31]. Images of organoid nuclei were analyzed using the ImageJ Nuclear Irregularity Index (NII) plugin for key parameters that included cell area, radius ratio, area box, aspect, and roundness. Using the published spreadsheet template, the NII of each cell was calculated with the following formula: NII=Aspect−Area Box+Radius Ratio+Roundness. The area vs NII of vehicle-treated cells were plotted as a scatter plot using the template and considered as the normal cell nuclei. […] The percentage of cells in each NII classification category were calculated and plotted as a histogram using GraphPad Prism.
(§1) Sonic Hedgehog (SHH) was withdrawn from the organoid growth media 16 hours prior to treatment. […] The IC50 values used for each hPITO line for each drug were determined based on dose responses (FIG. 12). […]

[3] = test system: ACTH; test: Spectral flow cytometry, ACTH positive cells, hPITOs
Text: 1.3 Generation and Culture of Human PitNET Tissue Organoids (hPITOs)
Patients undergoing planned transsphenoidal surgery for PitNETs were identified in the outpatient neuroendocrinology and neurosurgery clinics and collected by the St. Joseph's Hospital and Barrow Neurological Institute Biobank under the collection protocol PHXA-05TS038, and outcomes data protocol PHXA-0004-72-29 with approval of the Institutional Review Board (IRB) and patient consent. De-identified samples were shipped in collection and transport media (Table 3) to the Zavros laboratory (University of Arizona) for processing within 24 hours of collection. Resected PitNET tissues were washed with Dulbeccos Phosphate Buffered Saline (DPBS) supplemented with 1× Penicillin/Streptomycin, 1× Kanamycin and 1× Amphotericin/Gentamycin, minced into smaller pieces, and incubated with digestion buffer (Dulbecco's Modified Eagle Medium/Nutrient Mixture F-12 (DMEM/F12) supplemented with 0.4% Collagenase 2, 0.1% Hyaluronic Acid, 0.03% Trypsin). The tissue was incubated with Accutase (Thermo Fisher Scientific) for a further 5 minutes, and the cells were pelleted and washed with DPBS supplemented with antibiotics. Dissociated cells were then seeded as Matrigel™ domes in culture dishes and overlaid with growth media (Table 4). Media was replaced every 3 days and organoids were harvested for downstream experiments or passaged after 15 days of culture (FIG. 1B).
as §1

| SMILES | expression of SSTR5 ([1]; iPSC organoids, 48 h) | differential expression of SSTR5 ([1]; iPSCctrl organoids, compound alone, 48 h, FIG. 5C, D) | apoptotic cells by nuclear irregularity index (NII) [2] | number of ACTH expressing cells / ACTH ([3]; hPITO, 48 h, FIGS. 9I, J) | SSTR5 induction relative to SSTR2 [1] | SSTR5 induction relative to SSTR2 ([1]; listed as Relacorilant) | induction in SSTR5 expression, relacorilant compared to mifepristone ([1]; iPSC organoids, 500 nM each, 48 h, FIG. 5B) | sensitization of organoids to pasireotide ([3]; CD PitNET tissue derived organoids) |
| --- | --- | --- | --- | --- | --- | --- | --- | --- |
| CC#C[C@]1(O)CC[C@H]2[C@@H]3CCC4=CC(=O)CCC4=C3[C@@H](c3ccc(N(C)C)cc3)C[C@@]21C [mifepristone, 11β-(4-dimethylaminophenyl)-17ß-hydroxy-17α-(1-propynyl)-estra-4,9-dien-3-one] | significant induction; also recorded: significantly induced the expression | significantly induced | not observed; also recorded: induces apoptosis in neither the tumor organoid iPSC^USP48MV nor the control organoid iPSC^ctrl | significantly increased the number of ACTH expressing cells | – | – | – | – |
| Cn1cc(S(=O)(=O)N2CCC3=Cc4c(cnn4-c4ccc(F)cc4)C[C@]3(C(=O)c3cc(C(F)(F)F)ccn3)C2)cn1 [relacorilant, (R)-(1-(4-fluorophenyl)-6-((1-methyl-1H-pyrazol-4-yl)sulfonyl)-4,4a,5,6,7,8-hexahydro-1H-pyrazolo[3,4-g]isoquinolin-4a-yl) (4-(trifluoromethyl)pyridin-2-yl) methanone] | significant induction; also recorded: significantly induced the expression | – | not observed | – | predominantly induced SSTR5 expression; also recorded: greater induction of SSTR5 expression as compared to SSTR2 | predominantly induces SSTR5 | induced greater SSTR5 expression | sensitizes CD PitNET tissue derived organoids to pasireotide; also recorded: sensitized organoid tumor cells to suppression of ACTH by pasireotide |
